Measurements reported in patent publication US6440967B1, “Combination of a GABAA alpha 5 inverse agonist and COX-2 inhibitor, NSAID, estrogen or vitamin E” (Merck & Co., Inc., priority 1998, dated 2002).

melting point: 247.5 to 249 °C
SMILES: Cc1cc(-c2nnc3c4ccccc4c(OCc4cccc(Br)n4)nn23)no1 [Reference Example 2, 6-(6-Bromopyridin-2-yl)methyloxy-3-(5-methylisoxazol-3-yl)-1,2,4-triazolo[3,4-a]phthalazine]
